In article PMC8328003 (ACS chemical neuroscience, 2021):
Several values for one entry are separate records, joined by “and”; a condition that tells them apart may be missing. Equal entries are not always repeated.

How the values were obtained:
[1] = biological target: mouse kappa opioid receptor (mKOR) (Mus musculus, UniProt P33534); assay: Competition binding against 125I-IBNtxA, CHO cell membranes; conditions: affinity (Ki) mKOR, 125I-IBNtxA (0.1 nM)
mKOR = mKOR (Mus musculus, UniProt P33534); assay: [35S]GTPγS functional assay, CHO membranes; type: biochemical; conditions: for mKOR Emax: relative to U50,488H at 1000 nM
mDOR [2] = biological target: T1, mDOR (Mus musculus, UniProt P32300); assay: [35S]GTPγS functional assay, CHO membranes; type: biochemical; conditions: for mDOR Emax: relative to DPDPE at 1000 nM
[3] = biological target: mouse mu opioid receptor (mMOR) (Mus musculus, UniProt P42866); assay: Competition binding against 125I-IBNtxA, CHO cell membranes
mMOR = mMOR (Mus musculus, UniProt P42866); assay: [35S]GTPγS functional assay, CHO membranes; type: biochemical; conditions: for mMOR Emax: relative to DAMGO at 1000 nM
mDOR [4] = biological target: T1, mDOR; assay: Competition binding against 125I-IBNtxA, CHO cell membranes; conditions: affinity (Ki) mDOR, 125I-IBNtxA (0.1 nM)
C57BL/6J mice [5] = assay: 55 °C warm-water tail-withdrawal assay; type: in vivo, mouse
C57BL/6J mice [6] = assay: CLAMS locomotor activity; type: in vivo, mouse; conditions: 100 nmol, i.c.v., 180 min, versus vehicle
C57BL/6J mice [7] = assay: CLAMS breathing rate; type: in vivo, mouse; conditions: 100 nmol, i.c.v., 180 min, versus vehicle
hDOR [8] = biological target: T2, hDOR (Homo sapiens, UniProt P41143); assay: BRET Gi-1 activation, HEK293T cells; type: cell-based; conditions: normalized to control agonist (DPDPE; SNC80 in Figure 6G)
[9] = biological target: human kappa opioid receptor (hKOR) (Homo sapiens, UniProt P41145); assay: BRET Gi-1 activation, HEK293T cells; type: cell-based
[10] = biological target: human mu opioid receptor (hMOR) (Homo sapiens, UniProt P35372); assay: cell-based; type: cell-based
hNMDA = assay: NIMH-PDSP radioligand binding; design: species or system human; conditions: read-out: affinity Ki hNMDA
hKOR = hKOR (Homo sapiens, UniProt P41145); assay: BRET βarrestin-2 recruitment, HEK293T cells; type: cell-based
MOR = conditions: ex vivo; cited from earlier work
hMOR = hMOR (Homo sapiens, UniProt P35372); assay: BRET βarrestin-2 recruitment, HEK293T cells; type: cell-based
hDOR [11] = biological target: T2, hDOR; assay: BRET βarrestin-2 recruitment, HEK293T cells; type: cell-based; conditions: normalized to DPDPE

CC[C@@H]1CN2CC[C@]3(C(=O)Nc4ccccc43)[C@@H]2C[C@@H]1/C(=C\OC)C(=O)OC [corynoxine B]
Ki [1]: > 1 µM
Ki ([1]; μM): > 10 µM
mKOR Emax (mKOR): no activity
mDOR Emax (mDOR [2]): no activity
Ki ([3]; affinity (Ki) mMOR, 125I-IBNtxA (0.1 nM), CHO membranes): 5.01 ± 0.388 µM
mMOR Emax (mMOR): no activity
Ki (mDOR [4]): 1.68 ± 0.261 µM

CN1CC[C@]23c4c5ccc(O)c4O[C@H]2[C@@H](O)C=C[C@H]3[C@H]1C5 [morphine, reference compound]
antinociception ED50 (and 95% C.I.) (C57BL/6J mice [5]; i.c.v., WT C57BL/6J mice, from peak effect): 4.77 (1.49–28.8) nmol
locomotor effect (C57BL/6J mice [6]): significant locomotor effect
effect on breath rate (C57BL/6J mice [7]): significant decrease in breath rate

corynantheidine
maximal antinociception (ceiling effect, % MPE) (C57BL/6J mice [5]; mouse, in vivo): 50%
receptor dependence of antinociception (C57BL/6J mice [5]; mouse, in vivo): MOR dependent
Emax% ± SEM Gi-1 activation hDOR (hDOR [8]): < 20%
Emax% ± SEM Gi-1 activation hKOR [9]: < 20%
Emax% ± SEM Gi-1 activation hMOR [10]: 37% and 37.2 ± 4.30%
fold less potent than DAMGO, Gi-1 hMOR [10]: 20 fold
Ki (hNMDA): 0.083 µM
Emax% ± SEM βarrestin-2 recruitment hKOR (hKOR): < 20%
agonist action in guinea pig ileum (MOR): no agonist actions
mKOR EC50 (mKOR; [35S]GTPγS): no activity
mKOR Emax (mKOR): no activity
mDOR EC50 (mDOR [2]; [35S]GTPγS): no activity
mDOR Emax (mDOR [2]): no activity
fold higher mMOR affinity than mitragynine ([3]; same binding assay): ~4 fold
fold less potent than DAMGO, [35S]GTPγS (mMOR; mMOR): about 30 fold
mMOR Emax (mMOR; listed as corynanthedine): 74.13 ± 1.24%
Emax% ± SEM βarrestin-2 recruitment hMOR (hMOR): < 20%
Emax% ± SEM βarrestin-2 recruitment hDOR (hDOR [11]): < 20%
